Test results as given in patent US9266835B2, “Quinoline derivatives useful as CB-1 inverse agonists” (JANSSEN PHARMACEUTICA NV, priority 2014, dated 2016).
Read-outs that look alike come from different tables or passages of the source.

Legend:
[1] = target: Human CB1R (Cannabinoid receptor 1) (Homo sapiens (Human), UniProt P21554); experiment: CB-1 in vitro cAMP assay (HTRF), inverse agonism; format: cell-based; settings: mean where tested more than once
[2] = Mouse Fast PK/BBB (plasma and brain concentration); format: in vivo; settings: male, C57bl/6j, oral, N=3 (dose given as 30 mg/kg and 20 mg/kg)
From the text: Male Sprague Dawley rats were ordered from Charles River (225-250 gm upon arrival). They were fed standard chow diet (Purina 5001) and housed 2 per cage. Male C57bl/6j mice were ordered from Charles River at 22-25 g and housed 3 per cage. They were fed standard chow (Purina 5001). All animals were housed in a temperature-controlled room with 12-hour light/dark cycle. Animals were given food and water ad libitum, except as noted.
Test compounds were formulated in 10% PEG400 and 10% solutol. Test compounds were administered by oral gavage (5 ml kg^−1).
Male C57bl/6j mice were dosed with test compounds at 30 mg/kg. Plasma was collected via retro-orbital bleeding at 1 hr and 4 hrs after dosing. Whole brain without cerebellum was collected at 4 hrs after dosing. Wet brain weight was recorded before freezing. Brains were homogenized in saline and sent for analysis for determination of concentration of test compound.
Table BIO-3 below present results for representative compounds of the present invention, tested according to the procedure as described above. Each compound was tested in three animals (N=3) and administered PA at 20 mg/kg

[3] = target: Human CB2R (Cannabinoid receptor 2) (Homo sapiens (Human), UniProt P34972); experiment: CB-2 in vitro cAMP assay (HTRF), inverse agonism; format: cell-based; settings: mean where tested more than once
[4] = Mouse Fast PK/BBB (plasma and brain concentration); format: in vivo; settings: oral, N=3 (dose given as 30 mg/kg and 20 mg/kg)
[5] = brain, read-out: BRAIN Mean Conc. ± Std. Dev
[6] = plasma, read-out: PLASMA Mean Conc. ± Std. Dev

Human CB1R (Cannabinoid receptor 1), sequence (P21554 whole entry): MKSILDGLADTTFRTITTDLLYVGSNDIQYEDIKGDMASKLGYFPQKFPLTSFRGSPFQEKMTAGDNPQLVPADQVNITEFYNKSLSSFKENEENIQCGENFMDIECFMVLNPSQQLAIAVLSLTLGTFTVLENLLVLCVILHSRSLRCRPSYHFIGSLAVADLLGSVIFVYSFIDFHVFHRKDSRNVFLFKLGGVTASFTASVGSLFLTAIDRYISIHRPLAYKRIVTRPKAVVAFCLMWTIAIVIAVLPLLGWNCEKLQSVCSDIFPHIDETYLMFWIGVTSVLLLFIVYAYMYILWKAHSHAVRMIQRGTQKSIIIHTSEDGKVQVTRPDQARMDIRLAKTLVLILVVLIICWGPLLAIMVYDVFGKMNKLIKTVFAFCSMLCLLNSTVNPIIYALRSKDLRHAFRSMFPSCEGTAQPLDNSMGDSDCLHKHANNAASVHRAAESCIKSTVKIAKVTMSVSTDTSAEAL
Human CB2R (Cannabinoid receptor 2), sequence (P34972 whole entry): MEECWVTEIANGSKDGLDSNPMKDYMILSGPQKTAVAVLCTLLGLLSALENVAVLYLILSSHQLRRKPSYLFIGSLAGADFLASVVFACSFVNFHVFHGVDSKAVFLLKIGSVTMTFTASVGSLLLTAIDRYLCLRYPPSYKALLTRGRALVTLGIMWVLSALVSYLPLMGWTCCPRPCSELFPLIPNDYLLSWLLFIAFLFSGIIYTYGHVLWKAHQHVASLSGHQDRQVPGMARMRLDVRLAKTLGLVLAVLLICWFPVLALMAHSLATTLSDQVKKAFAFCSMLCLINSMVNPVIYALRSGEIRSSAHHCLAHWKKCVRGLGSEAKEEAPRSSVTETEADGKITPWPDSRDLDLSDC

| Compound | EC50 [1] [nM] | concentration at 4 h [2, 5] [ng/mL] | concentration at 1 h [2, 6] [ng/mL] | concentration at 4 h [2, 6] [ng/mL] | EC50 [3] [nM] | BRAIN Mean Conc. ± Std. Dev ([4]; 1 hr) | concentration at 1 h ([4]; male, C57bl/6j, brain, read-out: BRAIN Mean Conc. ± Std. Dev) [ng/mL] |
| --- | --- | --- | --- | --- | --- | --- | --- |
| O=c1cc(Nc2ccc(C(F)(F)F)cc2)c2cc(C(c3ccc(Cl)cc3)c3ccc(Cl)cc3)ccc2[nH]1 [Compound #59, 6-(bis(4-chlorophenyl)methyl)-4-((4-(trifluoromethyl)phenyl)amino)quinolin-2(1H)-one] | 7 | 59.7 ± 9.55 | 2320 ± 1020 | 1610 ± 563 | > 10000 | BLOQ ± NA | – |
| O=c1cc(NCc2ccc(C(F)(F)F)nc2)c2cc(C(c3ccc(Cl)cc3)c3ccc(Cl)cc3)ccc2[nH]1 [Compound #70, 6-(bis(4-chlorophenyl)methyl)-4-(((6-(trifluoromethyl)pyridin-3-yl)methyl)amino)quinolin-2(1H)-one] | 7 | – | – | – | > 10000 | – | – |
| OC(c1ccc(Cl)cc1)(c1ccc2nccc(/C=C/c3ccccc3)c2c1)c1cccs1 (stereo not drawn) [Compound 506, (4-Chlorophenyl){4-[(E)-2-phenylethenyl]quinolin-6-yl}thiophen-2-ylmethanol] | > 10000 | – | – | – | > 10000 | – | – |

Further compounds by falling EC50 [1], results first:

| EC50 [1] [nM] | concentration at 4 h [2, 5] [ng/mL] | concentration at 1 h [2, 6] [ng/mL] | concentration at 4 h [2, 6] [ng/mL] | EC50 [3] [nM] | BRAIN Mean Conc. ± Std. Dev ([4]; 1 hr) | concentration at 1 h ([4]; male, C57bl/6j, brain, read-out: BRAIN Mean Conc. ± Std. Dev) [ng/mL] | Compound |
| --- | --- | --- | --- | --- | --- | --- | --- |
| 702 | – | – | – | 660 | – | – | O=c1cc(/C=C/c2cccc(F)c2)c2cc(C(c3ccc(Cl)cc3)c3ccc(Cl)cc3)ccc2[nH]1 [Compound 15, 6-[Bis(4-chlorophenyl)methyl]-4-[(E)-2-(3-fluorophenyl)ethenyl]quinolin-2(1H)-one] |
| 15 | 0 | 714 ± 188 | 291 ± 90.5 | 8150 | – | 7.43 | O=c1cc(NC2CCN(S(=O)(=O)C(F)(F)F)CC2)c2cc(C(c3ccc(Cl)cc3)c3nccs3)ccc2[nH]1 (stereo not drawn) [Compound #41, 6-((4-chlorophenyl)(thiazol-2-yl)methyl)-4-((1-((trifluoromethyl)sulfonyl)piperidin-4-yl)amino)quinolin-2(1H)-one] |
